Reference: patent US20250161414A1, “METHOD FOR IMPROVING AUDITORY PERCEPTION USING A VIPR1 INHIBITOR” (ST. JUDE CHILDREN'S RESEARCH HOSPITAL, INC., priority 2022, published 2025)
Like-named read-outs stand apart in the source and are kept apart here. No end group written: not given here.

Experiments:
[1] = Frequency discrimination (auditory) acuity test, pre-pulse inhibition of acoustic startle response (FDT); assay type: in vivo, mouse; settings: Gad2Cre, i.p., compared to vehicle
Method: (§1) Mouse Behavioral Tests: Frequency Discrimination (Auditory) Acuity Test. Pitch-discrimination acuity was assessed using pre-pulse inhibition (PPI) of the acoustic startle response via a hardware-computer interface (Kinder Scientific, Chula Vista, CA), according to established methods (Aizenberg et al. (2015) PLOS Biol. 13:e1002308; Blundon et al. (2017) Science 356:1352-1356). In brief, a background pure tone (16.4 kHz) was played at a sound pressure level (SPL) of 70 dB throughout the session, unless otherwise noted. Each session was split into four blocks. Block 1 included a 5-minute acclimation period in which the background tone was played. Block 2 included nine startle trials in which a 120-dB SPL, 20-ms white noise (WN) burst was played. Block 3 included prepulse trials and 10 startle-only trials in a pseudo-random order. Each pre-pulse trial included a 70-dB SPL 80-ms pre-pulse (pure-tone frequency was 0%, 1%, 2%, 4%, 8%, 16%, or 32% lower than that of the background tone), followed by a 120-dB SPL, 20-ms WN startle pulse, and then returned to the background tone after the startle. Every trial in Block 3 was presented 10 times. […] PPI percentage was calculated from Block 3 data as follows: [1−(pre-pulse trial/average startle only trial)]*100. […] FDT values were then analyzed using a t-test, a one-way ANOVA, or a paired t-test, as appropriate. […]

[2] = test system: hM4Di-expressing cortical FS interneurons; assay: Current-clamp recording from hM4Di-expressing (mCitrine+) cells in acute cortical slices; assay type: cell-based, mouse; settings: bath application
Method: Single-Cell Electrophysiology: Auditory Thalamocortical Brain Slices. Acute primary thalamocortical (TC) slices (400-μm thick) containing the left ACx and the left ventral part of the medial geniculate nuclei (MGv) of the thalamus were prepared as previously described (Chun et al. (2014) Science 344:1178-1182; Cruikshank et al. (2002) J. Neurophysiol. 87:361-384). Briefly, mouse brains were removed and placed in cold (4° C.) dissecting medium containing 125 mM choline-Cl, 2.5 mM KCl, 0.4 mM CaCl2, 6 mM MgCl2, 1.25 mM NaH2PO4, 26 mM NaHCO3, and 20 mM glucose (300-310 mosm), equilibrated with 95% O2/5% CO2. […] If recorded in current-clamp mode, pyramidal neurons were additionally verified as regularly spiking. […]
Single-Cell Electrophysiology: Whole-Cell Recording. Whole-cell recordings were made with patch pipettes (3-5 MOhm) using a Multiclamp 700B amplifier, digitized (10 kHz) with a Digidata 1440, and recorded using pCLAMP 10 software (all Molecular Devices, San Jose, CA). […] In voltage-clamp recordings, series resistance, input resistance, and holding current were monitored for stability. […] Input resistance and membrane resting voltage were monitored during recordings. […] Drugs were added to ACSF or locally applied via continuous pressure ejection from a large-diameter pipette placed in the slice near the recorded cell. […]

[3] = Acoustic startle response (ASR); assay type: in vivo, mouse; settings: C21 i.p., either genotype (Gad2Cre; WT or Gad2Cre; CD+/-)
Method: as §1

[4] = test system: FS interneurons in the ACx; assay: Whole-cell current-clamp recording of FS interneuron excitability (rheobase, current ramp) in auditory thalamocortical slices; assay type: cell-based, mouse; settings: for PG 97-269 rheobase shift (difference between rheobase before and after application) / PG 97-269 rheobase shift: FS interneurons
ACx excitatory neurons = assay type: cell-based, mouse
ACx interneurons = assay: Whole-cell voltage-clamp recording of inward voltage-gated current threshold (voltage ramp) in ACx interneurons; assay type: cell-based, mouse; settings: Gtf2ird1+/- and Gtf2ird1-/- cortical interneurons compared to WT interneurons

c1ccc2c(c1)N=C(N1CCNCC1)c1ccccc1N2 [C21]
FDT (frequency-discrimination threshold) ([1]; CD+/- mice expressing hM4Di in ACx interneurons): significantly increased
FDT (frequency-discrimination threshold) ([1]; WT mice expressing hM4Di in ACx interneurons): not different
number of action potentials elicited by depolarizing current injections [2]: decreased
ASR [3]: not affected

[Ala^11,22,28]-VIP (HSDAVFTDNYARLRKQMAVKKALNSILA; ends and bridges not checked; UniProt P01282 125-152, looked up, variant T11A Y22A N28A) [VIPR1-specific agonist]
effect of VIPR1-specific agonist on interneurons ([4]; WT or CD+/- interneurons, brain slices): no significant effect

picrotoxin
difference in sEPSC frequencies between WT and CD+/- ACx excitatory neurons after application (ACx excitatory neurons; L4 ACx excitatory neurons): abolished

[Acetyl-His^1, D-Phe^2, Lys^15, Arg^16, Leu^17] VIP (1-7)/GRF (8-27) hybrid with C-terminal amidation (HFDAVFTNSYRKVLKRLSARKLLQDIL; HELM PEPTIDE1{[ac].H.[dF].D.A.V.F.T.N.S.Y.R.K.V.L.K.R.L.S.A.R.K.L.L.Q.D.I.L.[am]}$$$$V2.0; SMILES CC[C@H](C)[C@H](NC(=O)[C@H](CC(=O)O)NC(=O)[C@H](CCC(N)=O)NC(=O)[C@H](CC(C)C)NC(=O)[C@H](CC(C)C)NC(=O)[C@H](CCCCN)NC(=O)[C@H](CCCNC(=N)N)NC(=O)[C@H](C)NC(=O)[C@H](CO)NC(=O)[C@H](CC(C)C)NC(=O)[C@H](CCCNC(=N)N)NC(=O)[C@H](CCCCN)NC(=O)[C@H](CC(C)C)NC(=O)[C@@H](NC(=O)[C@H](CCCCN)NC(=O)[C@H](CCCNC(=N)N)NC(=O)[C@H](Cc1ccc(O)cc1)NC(=O)[C@H](CO)NC(=O)[C@H](CC(N)=O)NC(=O)[C@@H](NC(=O)[C@H](Cc1ccccc1)NC(=O)[C@@H](NC(=O)[C@H](C)NC(=O)[C@H](CC(=O)O)NC(=O)[C@@H](Cc1ccccc1)NC(=O)[C@H](Cc1c[nH]cn1)NC(C)=O)C(C)C)[C@@H](C)O)C(C)C)C(=O)N[C@@H](CC(C)C)C(N)=O) [PG 97-269, VIPR1-specific antagonist]
PG 97-269 threshold shift (ACx interneurons): significantly reduced
effect on excitability of FS interneurons ([4]; ACx of Gtf2ird1+/- and Gtf2ird1-/- mice compared to WT mice): either a diminished or no effect
effect on excitability of FS interneurons ([4]; CD+/- cortex, interneurons already hyperexcitable): no additional effect
PG 97-269 rheobase shift (difference between rheobase before and after application) ([4]; CD+/- mice): not significantly different from 0
PG 97-269 rheobase shift ([4]; Gtf2ird1+/- mice): did differ from 0
PG 97-269 rheobase shift ([4]; Gtf2ird1-/- mice): did not significantly differ from 0
PG 97-269 rheobase shift (difference between rheobase before and after application) ([4]; WT mice): significantly less than 0

NC1=N[C@H](O)[C@H]2[C@H]3O[C@]4(O)O[C@@H]([C@@H](O)[C@@]2(N1)[C@@H]4O)[C@]3(O)CO [tetrodotoxin]
difference in sEPSC frequencies between WT and CD+/- ACx excitatory neurons after application (ACx excitatory neurons): abolished
